Structures can show the parent of a compound that is named as a salt. Where two headings read alike, the source gives them in different places. Blank lines part the entries; values can stand above or below the compound they belong to.
Experiments:
[1] = the molecule shown is the open-chain precursor, crosslinker bond, 11-membered ring, MeCN
[2] = system: SUDHL5 cells; assay: Induction of caspase-3/7 activity (Caspase-Glo 3/7), SUDHL5; type: cell-based; conditions: EC50, median, SUDHL5, 3 h treatment
How it was run: (§1)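 DLBCL lines were exposed to test compounds for 3 h at 37 °C in a humidified incubator, then caspase-3/7 activity was measured with Caspase-Glo 3/7 reagent. Medium-only background was subtracted from all readings.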

[3] = system: SUDHL10 cells; assay: Induction of caspase-3/7 activity (Caspase-Glo 3/7), SUDHL10; type: cell-based; conditions: EC50, median, SUDHL10, 3 h treatment
How it was run: as §1

[4] = system: SUDHL5 cells; assay: Antiproliferation assay (CellTiter-Glo, 72 h), SUDHL5; type: cell-based; conditions: IC50, median, SUDHL5, 72 h, read-out: Antiproli SUDHL5 [M] (median)
How it was run: (§2)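 Cells were exposed to compounds for 72 h at 37 °C in a humidified incubator, with rim wells excluded. Viability was read by CellTiter-Glo luminescence after a 10 min incubation. A parallel day 0 plate, read the same way, gave the time-zero baseline.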

[5] = system: MV-4-11 cells; assay: Antiproliferation assay (CellTiter-Glo, 72 h), MV-4-11; type: cell-based; conditions: IC50, median; MV-4-11, 72 h; read-out: Antiproli MV-4-11 [M] median
Procedure: (§3) Assessment of the Anti-Proliferative Effect of Compounds in Different Cell Lines
(§4) The impact of compounds on the proliferation of different cell lines was assessed using the CellTiter-Glo® Luminescent Cell Viability reagent from Promega (G7573).
(§5) In parallel, cells were plated in a reference (day 0) plate for time zero determination.
(§6) Rim wells were excluded. The cells were incubated for 72 h hours in a humidified incubator at 37° C. The day 0 plate was measured by adding 30 μL/well of CTG solution (CellTiter-Glo® Luminescent Cell Viability reagent, Promega G7573) to time zero wells in the reference plate followed by a 10 minutes incubation and luminescence reading at 0.1 ms. using the PHERAstar FS microplate reader (BMG Labtech).
(§7) After 72 h incubation, the treated plates were measured in the same way as the day 0 plate mentioned above.

[6] = system: SK-BR-3 cells; assay: Antiproliferation assay (CellTiter-Glo, 72 h), SK-BR-3; type: cell-based; conditions: IC50, median; SK-BR-3, 72 h; read-out: Antiproli SK-BR-3 [M] median
Procedure: as §3, §4, §5, §6, §7

[7] = system: SUDHL5 cells; assay: Induction of cytotoxicity (CellTiter-Glo, 5 h), SUDHL5; conditions: SUDHL5, 5 h
[8] = system: SUDHL10 cells; assay: Induction of cytotoxicity (CellTiter-Glo, 5 h), SUDHL10; conditions: Homo sapiens, SU-DHL10, 5 h, read-out: Cytotox SUDHL10 [M] (median), IC50, median; SUDHL10, 5 h
[9] = target: MCL-1 (Homo sapiens (Human), UniProt Q07820, K194A/K197A/R201A); assay: Protein-protein interaction assay MCL-1/Noxa BH3 peptide (MCL-1 assay), TR-FRET; type: binding; conditions: IC50, median; MCL-1/Noxa BH3 TR-FRET
Sequence of MCL-1 (Q07820 whole entry K194A/K197A/R201A, looked up, the tested form may be a part): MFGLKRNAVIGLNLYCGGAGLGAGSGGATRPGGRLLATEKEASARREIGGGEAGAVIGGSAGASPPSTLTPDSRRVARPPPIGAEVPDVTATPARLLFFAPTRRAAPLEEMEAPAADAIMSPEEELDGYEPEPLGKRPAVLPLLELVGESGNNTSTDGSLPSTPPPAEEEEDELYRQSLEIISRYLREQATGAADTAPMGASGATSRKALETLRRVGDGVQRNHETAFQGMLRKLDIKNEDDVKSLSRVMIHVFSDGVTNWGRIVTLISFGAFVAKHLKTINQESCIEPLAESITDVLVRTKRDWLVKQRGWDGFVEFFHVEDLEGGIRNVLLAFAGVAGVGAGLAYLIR
Procedure: The dose-dependent inhibition by the compounds described in this invention of the interaction between MCL-1 and the BH3 domain of Noxa (both human) was determined using a steady state binding competition assay with time-resolved fluorescence energy transfer (TR-FRET) readout. […] The MBP-MCL-1 was purchased from Beryllium (Bedford, Mass., USA). The expression and purification of this protein construct has been described elsewhere (DOI:10.1371/journal.pone.0125010). The Noxa BH3-derived peptide can be obtained from e.g. Biosyntan (Berlin, Germany), 50812.1.
For that, 100-fold concentrated DMSO solutions were prepared by serial dilutions (1:3.4) of a 2 mM stock solution in a clear, 384-well microtiter plate (Greiner Bio-One, Frickenhausen, Germany). From there, 50 nl were transferred in a dark test plate (Greiner Bio-One, Frickenhausen, Germany). […] This was followed by a 10-minute incubation step at 22° C. for pre-equilibration of the putative complex between MBP-MCL-1 and the compounds.
The mixture was incubated in the dark for one hour at 22° C. and then overnight at 4° C.
The resulting data (ratio) were normalized, taking 0% inhibition as the mean value of control measurements (usually 32 data points) where all reagents were included. In this case 50 nl DMSO were used instead of compounds. […] IC50 values were determined by regression analysis based on a 4 parameter equation (minimum, maximum, IC50, Hill; Y=Max+(Min−Max)/(1+(X/IC50)^Hill) using the Screener Software (Genedata).

[10] = target: MCL1 protein (Homo sapiens (Human), UniProt Q07820); assay: PIxEL: protein-protein interaction in permeabilized cells by ELISA (MCL1/biotin-BIM BH3 peptide, RKO cells); type: cell-based; conditions: IC50, median, serum free
Sequence of MCL1 protein (Q07820 whole entry): as the sequence (Q07820 whole entry K194A/K197A/R201A, looked up, the tested form may be a part) above, with A194K, A197K, A201R counted along it
Procedure: PIxEL: Protein-Protein Interaction in Permeabilized Cells by ELISA
Most MCL1 protein molecules are localized at the mitochondria outer membrane and sequester pro-apoptotic proteins through binding of their BCL2 homology domain 3 (BH3 domain). MEB buffer (150 mM mannitol, 10 mM HEPES pH 7.5, 50 mM KCl, 20 μM EDTA, 20 μM EGTA, 5 mM potassium succinate, 0.1% protease-free BSA (SIGMA) with low dose digitonin (0.002%) permeabilizes plasma membrane while leaves live mitochondria, where MCL1 maintains its native localization and conformation. Unlike biophysical assays (e.g. TR-FRET) that use truncated recombinant MCL1 protein, this assay uses full length endogenous MCL1 protein at mitochondria outer membrane. It measures the interaction between MCL1 protein and biotinylated BIM BH3 peptide. Compounds can compete with BIM BH3 peptide to bind to MCL1 protein.
On day 1, RKO colon cancer cell line cells were plated at 0.8 million cells/ml, 100 μl/well in 96-well flat bottom TC plates (Corning). MCL1 antibody (Santa Cruz sc-12756) were diluted at 200 fold (final concentration 1 μg/ml) in carbonate buffer (Thermo Fisher Scientific, pH 9.6), and 50 μl of diluted antibody was added to each well of high bind ELISA plates ([…]). Each plate was tapped to make sure liquid covering entire bottom of wells and incubate at 37° C. overnight.
On the second day, MCL1 antibody was washed from ELISA plate. 250 μl Odyssey® Blocking Buffer (PBS) (Li-Cor) was added to each well, incubated at room temperature for at least 1 hour, then washed once with 250 μl 1×PBST. Plates with RKO cells were gently washed once with 100 μl/well PBS, once with 100 μl/well MEB buffer without digitonin, then 100 μl of MEB buffer with 0.002% digitonin was gently added to each well. Compounds were added with HP Tecan compound dispenser in 3-fold dilution series, highest dose 30 μM, 10-dose per compound in quadruplicates. Biotin-BIM peptide (synthesized by 21st Century) was added with HP Tecan compound dispenser at 0.2 μM immediately after the addition of compounds. Plates were rocked for 1 hour at room temperature. Then MEB buffer was aspirated and 50 μl of CHAPS buffer (50 mM Tris-Cl, pH 7.4, 150 mM NaCl, 1% CHAPS, 1 mM EDTA, 1 mM EGTA, cOmplete protease inhibitors (Roche), PhosSTOP (Roche)) was added to each well. Plates were rocked for 1 hour at 4° C., then 45 μl cell lysate from each well were transferred to ELISA plates coated with MCL1 antibody. Plates were incubated overnight in the cold room with rocking.
On the third day, ELISA plates were washed once with 250 μl 1×PBST. Streptavidin-poly-HRP (Thermo Fisher Scientific) was diluted to 20 ng/ml in Odyssey blocking buffer plus 0.05% Triton-100, and 100 μl was added to each well of the ELISA plate. Plates were incubated at RT from 1 hour with rocking, then washed with 100 μL 1×PBST for 3 times. Each SuperSignal ELISA Femto Maximum Sensitivity substrate was added to a 50-ml tube and mixed, then 100 μl of mixed substrate was added to each well. Plates were shaken for 1 minute then luminescence was measured by Envision plate reader […]. Signal of each well were normalized by no-compound control and no-cell control. IC50 was calculated using Graphic Pad PRISM software.

[11] = system: AMO-1 cells; assay: Antiproliferation assay (CellTiter-Glo, 72 h), AMO-1; type: cell-based; conditions: IC50, median, AMO-1, 72 h, read-out: Antiproli AMO-1 [M] median
How it was run: as §2

[12] = system: HMC-1-8 cells; assay: Antiproliferation assay (CellTiter-Glo, 72 h), HMC-1-8; type: cell-based; conditions: IC50, median; HMC-1-8, 72 h; read-out: Antiproli HMC-1-8 [M] median
How it was run: as §2

[13] = read-out: Cytotox SUDHL5 [M] (median), IC50, median
[14] = Homo sapiens, SU-DHL-5, 5 h, read-out: Cytotox SUDHL5 [M] (median), IC50, median

Compound: CCOC(=O)c1[nH]c2c(-c3c(CC)nn(C)c3CO)c(Cl)ccc2c1CCCOc1cccc2cc(F)ccc12
ring closure, isolated yield ([1]; (Z)-1,4-dichlorobut-2-ene/Cs2CO3/NaI, […]): 84%

Compound: CCOC(=O)c1[nH]c2c(-c3c(CC)nn(CCN4CCOCC4)c3CNC)c(Cl)ccc2c1CCCOc1cccc2ccccc12
ring closure, isolated yield ([1]; (Z)-1,4-dichlorobut-2-ene/Cs2CO3, […]): 45%

Compound: CCOC(=O)c1[nH]c2c(-c3c(CO)nn(C)c3C)c(Cl)ccc2c1CCCOc1cccc2ccccc12
ring closure, isolated yield ([1]; (Z)-1,4-dichlorobut-2-ene/Cs2CO3/NaI, […], 70.0 °C): 71%

Compound: CCOC(=O)c1[nH]c2c(-c3c(CO)nn(C)c3CC)c(Cl)ccc2c1CCCOc1cccc2cc(F)ccc12
ring closure, isolated yield ([1]; (Z)-1,4-dichlorobut-2-ene/Cs2CO3/NaI, 77.0 mM, […]): 82%

Compound: CCOC(=O)c1[nH]c2c(-c3c(CO)nn(CCCO[Si](C)(C)C(C)(C)C)c3C)c(Cl)ccc2c1CCCOc1cccc2ccccc12
ring closure, isolated yield ([1]; (Z)-1,4-dichlorobut-2-ene/Cs2CO3/NaI, 31.9 mM, 70.0 °C): 68%

EC50 [2]: 290 nM
EC50 ([3]; Homo sapiens, SU-DHL10, 3 h): 360 nM
IC50 [4]: 4.7e-07 M
IC50 [5]: 1.1e-06 M
IC50 [6]: 3e-06 M
Compound: CCc1nn(CCN2CCOCC2)c2c1-c1c(Cl)ccc3c(CCCOc4cccc5ccccc45)c(C(=O)O)n(c13)CCCCOC2 (racemic) [Example 8, (rac)-4-chloro-3-ethyl-1-[2-(morpholin-4-yl)ethyl]-7-[3-(naphthalen-1-yloxy)propyl]-1,10,11,12,13,15-hexahydropyrazolo[4′,3′:9,10][1,6]oxazacycloundecino[8,7,6-hi]indole-8-carboxylic acid]
IC50 [7, 13]: 3.5e-07 M
IC50 [8]: 4.5e-07 M

IC50 [9]: 1.6 nM
EC50 ([2]; listed as 082): 490 nM
EC50 ([3]; listed as 082): 1100 nM
IC50 [10]: 225 nM
IC50 ([4]; Homo sapiens, SU-DHL-5, 72 h): 8.1e-07 M
Compound: Cc1c2c(nn1C)COCC1CC1Cn1c(C(=O)O)c(CCCOc3cccc4ccccc34)c3ccc(Cl)c-2c31 (single isomer, unassigned) [Example 82, 3-chloro-4,5-dimethyl-14-{3-[(naphthalen-1-yl)oxy]propyl}-5,7,9a,10,10a,11-hexahydro-9H-cyclopropa[3,4]pyrazolo[4′,3′:9,10][1,6]oxazacycloundecino[8,7,6-hi]indole-13-carboxylic acid]
IC50 ([11]; listed as 082): 2.9e-06 M
IC50 [7, 14]: 4.9e-07 M

Compound: Cc1c2c(nn1C)CN(C)CCCCn1c(C(=O)O)c(CCCOc3cccc4cc(F)ccc34)c3ccc(Cl)c-2c31 (single isomer, unassigned; enantiomer 2) [Example 32, (−)-4-chloro-7-{3-[(6-fluoronaphthalen-1-yl)oxy]propyl}-2,3,14-trimethyl-10,11,12,13,14,15-hexahydro-2H-pyrazolo[3′,4′:8,9][1,6]diazacycloundecino[10,11,1-hi]indole-8-carboxylic acid-N-ethylethanamine salt (Enantiomer 2)]
IC50 [9]: 26 nM
IC50 [10]: 19100 nM
IC50 [4]: 6e-06 M
IC50 [5]: 1.4e-05 M
IC50 [7, 13]: 9.3e-06 M

IC50 [9]: 2.7 nM
EC50 ([2]; Homo sapiens, SU-DHL-5, 3 h): 270 nM
IC50 [10]: 752 nM
IC50 ([4]; Homo sapiens, SU-DHL-5, 72 h): 2.7e-07 M
Compound: Cc1c2c(nn1C)COCC1CC1Cn1c(C(=O)O)c(CCCOc3cccc4ccccc34)c3ccc(Cl)c-2c31 (single isomer, unassigned; stereoisomer 1) [Example 65, (9aS,10aR or 9aR,10aS)-3-chloro-4,5-dimethyl-14-{3-[(naphthalen-1-yl)oxy]propyl}-5,7,9a,10,10a,11-hexahydro-9H-cyclopropa[3,4]pyrazolo[4′,3′:9,10][1,6]oxazacycloundecino-[8,7,6-hi]indole-13-carboxylic acid—Stereoisomer 1]
IC50 ([11]; Homo sapiens, AMO1, 72 h): 6e-07 M
IC50 [12]: 2.5e-06 M
IC50 [7, 14]: 3.3e-07 M

From patent publication US11478451B1, “Macrocyclic chlorine substituted indole derivatives” (Bayer Aktiengesellschaft, priority 2017, dated 2022)
